Common to all, as to type: in vivo
Experiment [1] deals with pigweed (Amaranthus retroflexus). The experiment is described as follows: Test A preemergence. The following applies: Amaranthus retroflexus, pre-emergence, 240 h; for pest or weed control at 125 g/ha: 125 g ai/ha, preemergence, 0 to 100 scale where 0 is no effect and 100 is complete control, read-out: Pigweed plant response rating; for pest or weed control at 500 g/ha: 500 g ai/ha, Preemergence, visual injury vs untreated controls after approximately 10 d, read-out: Pigweed plant response rating (0 to 100 scale where 0 is no effect and 100 is complete control).

For experiment [2], the system named is Galium (catchweed bedstraw, Galium aparine). The experiment is described as follows: Test A postemergence. To be noted: Galium, post-emergence, 240 h, 125 g ai/ha, postemergence, visual injury rating after approximately 10 d; read-out: Galium plant response rating (0 to 100 scale, 0 no effect, 100 complete control). The method, boiled down:
(§1)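 Seeded soil received test chemicals as a preemergence directed spray, and seedlings at one to two leaves, 2–10 cm tall, received them postemergence, in a non-phytotoxic, surfactant-containing solvent mixture. Pots were held in a greenhouse for approximately 10 d, then rated for injury from 0, no effect, to 100, complete control.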

A further experiment deals with Kochia (Kochia scoparia). The experiment is described as follows: Test A postemergence. The following applies: Bassia scoparia, post-emergence, 240 h, 125 g ai/ha, postemergence, visual injury rating after approximately 10 d; read-out: Kochia plant response rating (0 to 100 scale, 0 no effect, 100 complete control). The method, boiled down: as §1
Experiment [3] has as its system barnyardgrass (Echinochloa crus-galli). Put plainly: Test A postemergence. The following applies: Echinochloa crus-galli, post-emergence, 240 h, 125 g ai/ha, postemergence, visual injury rating after approximately 10 d; read-out: Barnyardgrass plant response rating (0 to 100 scale, 0 no effect, 100 complete control). The method, boiled down:
as §1

In experiment [4] the test system is blackgrass (Alopecurus myosuroides). Put plainly: Test A postemergence. To be noted: Alopecurus myosuroides, post-emergence, 240 h, 125 g ai/ha, postemergence, visual injury rating after approximately 10 d; read-out: Blackgrass plant response rating (0 to 100 scale, 0 no effect, 100 complete control). The method, boiled down:
as §1

The next experiment concerns corn (Zea mays). Put plainly: Test A postemergence. The following applies: Zea mays, post-emergence, 240 h, 125 g ai/ha, postemergence, visual injury rating after approximately 10 d; read-out: Corn plant response rating (0 to 100 scale, 0 no effect, 100 complete control). The gist of the method:
as §1

Experiment [5] has as its system giant foxtail (Setaria faberii). The experiment is described as follows: Test A postemergence. The following applies: Setaria faberi, post-emergence, 240 h, 125 g ai/ha, postemergence, visual injury rating after approximately 10 d; read-out: Foxtail, Giant plant response rating (0 to 100 scale, 0 no effect, 100 complete control). The gist of the method: as §1
Experiment [6] concerns pigweed (Amaranthus retroflexus). The experiment is described as follows: Test A postemergence. The following applies: Amaranthus retroflexus, post-emergence, 240 h, 125 g ai/ha, postemergence, visual injury rating after approximately 10 d; read-out: Pigweed plant response rating (0 to 100 scale, 0 no effect, 100 complete control). The gist of the method: as §1
Experiment [7] concerns ragweed (common ragweed, Ambrosia elatior). Put plainly: Test A postemergence. The following applies: Ambrosia artemisiifolia, post-emergence, 240 h, 125 g ai/ha, postemergence, visual injury rating after approximately 10 d; read-out: Ragweed plant response rating (0 to 100 scale, 0 no effect, 100 complete control). The method, boiled down: as §1
Experiment [8] deals with ryegrass, Italian (Italian ryegrass, Lolium multiflorum). The experiment is described as follows: Test A postemergence. To be noted: Lolium multiflorum, post-emergence, 240 h, 125 g ai/ha, postemergence, visual injury rating after approximately 10 d; read-out: Ryegrass, Italian plant response rating (0 to 100 scale, 0 no effect, 100 complete control). The gist of the method: as §1

Experiment [9] has as its system wheat (Triticum aestivum). Put plainly: Test A postemergence. To be noted: Triticum aestivum, post-emergence, 240 h, 125 g ai/ha, postemergence, visual injury rating after approximately 10 d; read-out: Wheat plant response rating (0 to 100 scale, 0 no effect, 100 complete control). The gist of the method:
as §1

The test system of experiment [10] is barnyardgrass (Echinochloa crus-galli). The experiment is described as follows: Test B flooded paddy test. To be noted: Echinochloa crus-galli, Flood, 250 g ai/ha; scale of 0 to 100 where 0 is no effect and 100 is complete control; read-out: Barnyardgrass plant response rating. The method, boiled down:
(§2)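 Plants at 2-leaf stage flooded to 3 cm above soil, with compounds applied directly to paddy water and that depth maintained. Plants kept in greenhouse 13–15 d. Visual rating versus controls on a 0 (no effect) to 100 (complete control) scale.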

For experiment [11], the system named is ducksalad (Heteranthera limosa). Put plainly: Test B flooded paddy test. The following applies: Heteranthera limosa, Flood, 250 g ai/ha; scale of 0 to 100 where 0 is no effect and 100 is complete control; read-out: Ducksalad plant response rating. The method, boiled down: as §2
The subject of a further experiment is rice (Oryra sativa). Put plainly: Test B flooded paddy test. The following applies: Oryza sativa, Flood, 250 g ai/ha; scale of 0 to 100 where 0 is no effect and 100 is complete control; read-out: Rice plant response rating. The method, boiled down: as §2
The test system of experiment [12] is sedge, umbrella (small-flower umbrella sedge, Cyperus difformis). The experiment is described as follows: Test B flooded paddy test. The following applies: Cyperus difformis, Flood, 250 g ai/ha; scale of 0 to 100 where 0 is no effect and 100 is complete control; read-out: Sedge, Umbrella plant response rating. The gist of the method: as §2

Turning to `CSc1ccccc1NC(=O)[C@H]1C(=O)N(C)C[C@@H]1c1cccc(OC(F)(F)C(F)F)c1` [Compound 862], the pest or weed control at 125 g/ha in experiment [1] amounted to 80%; in experiment [2], 60%; with Kochia (Kochia scoparia), 40%; in [3], 30%; in experiment [4] it was 0%; in experiment [5], 60%. In addition, the pest or weed control at 125 g/ha is 60% in experiment [6], 0% in experiment [7] and 20% in [8]. In addition, the pest or weed control at 500 g/ha in experiment [1] was 90%. For the same molecule, the plant injury at 125 g/ha in the experiment on corn (Zea mays) turned out to be 20%; in experiment [9], 0%. Besides, the pest or weed control at 250 g/ha in experiment [10] turned out to be 0%; in [11], 90%; in the experiment on rice (Oryra sativa), 0%; in experiment [12], 0%.

For `CC(C)c1cccc([C@H]2CN(C)C(=O)[C@@H]2C(=O)Nc2ccccc2S(C)(=O)=O)c1` [Compound 820], the pest or weed control at 125 g/ha in experiment [1] was found to be 40%; in [2], 30%; in the experiment on Kochia (Kochia scoparia) it was 20%; in experiment [3], 90%; in experiment [4] it was 40%; in [5], 90%. Besides, the results for the pest or weed control at 125 g/ha in [6], in [7] and in experiment [8] were 20%, 20% and 30%, respectively. In addition, the pest or weed control at 500 g/ha in experiment [1] came out at 70%. Further, the figures for the plant injury at 125 g/ha (in the experiment with corn (Zea mays); in [9]) were 30% and 40%, respectively. Further, the pest or weed control at 250 g/ha in experiment [10] is 60%; in experiment [11], 75%; in the experiment on rice (Oryra sativa) it was 0%; in [12] it was 0%.

For the molecule `COc1c(F)ccc([C@H]2CN(C)C(=O)[C@@H]2C(=O)Nc2cccc(F)c2F)c1Cl` [Compound 893], the pest or weed control at 125 g/ha in experiment [1] amounted to 30%; in [2] it was 50%; in the experiment with Kochia (Kochia scoparia), 60%; in experiment [3] it was 100%; in experiment [4] it was 30%; in [5] it was 90%. For the same molecule, the figures for the pest or weed control at 125 g/ha in experiment [6], in experiment [7] and in experiment [8] were 20%, 30% and 60%, respectively. Besides, in experiment [1], the pest or weed control at 500 g/ha came to 50%. Besides, the plant injury at 125 g/ha with corn (Zea mays) turned out to be 80%; in experiment [9] it was 30%. Also, the pest or weed control at 250 g/ha was 90% in [10], 90% in [11], 10% with rice (Oryra sativa) and 0% in experiment [12].
